# System: Black Bean Aphid [Aphis fabae (Scop.)]
# Assay: Direct spray assay on black bean aphid
# Type: in vivo
# Details: % by weight in acetone-water, mortality after 3 days
# Protocol: D. Direct Spray Assay on Black Bean Aphid [Aphis fabae (Scop.)]
# A nasturtium plant (Tropaeolum sp.), approximately 5 cm tall, is transplanted into sandy loam soil in a 3-inch clay pot and infested with 25-50 black bean aphids of mixed ages. Twenty-four hours later the plant is sprayed, to the point of runoff, with a 50-50 acetone-water solution of the test chemical. The treated plant is held in the greenhouse and mortality is recorded after 3 days. The primary screening level for this test is 0.05% by weight of the test compound in the acetone-water solution.
# (§1) For a particular insect, each compound was initially tested at the primary screening level. For the two-spotted mite, the testing stopped at this point. Those compounds showing less than 50% kill are represented in the table by the primary screening level preceded by a "greater than" sign. For those showing more than 50% kill, a "less than" sign is used. For all other insects those compounds showing greater than 50% kill at the primary screening level were then tested at successively lower levels, until the level was found at which approximately 50% kill was achieved. This level is listed as the LD50 (50% lethal dose) value in Table III. For those compounds showing approximately 50% kill at the primary screening level, the primary screening level itself is listed as the LD50.
# (§2) In cases where this level was found, the level is reported as the LD50. When the level of 50% kill was not found, the number listed is the highest concentration tested, whether primary screen or higher, preceded by a "greater than" sign to indicate that a higher level than reported must be used to achieve 50% kill.
row,Structure (SMILES),"Approximate LD50, BBA (black bean aphid)"
1,COP(=S)(OC)SCC(=O)Nc1nc(NC(=O)CSP(=S)(OC)OC)c(-c2ccccc2)s1 [Compound 9],.2%
2,CCOP(=O)(OCC)SCC(=O)Nc1csc(NC(=O)CSP(=O)(OCC)OCC)n1 [Compound 8],.001%

# System: Southern House Mosquito [Culex pipiens quinquefasciatus (Say)]
# Assay: Southern house mosquito larvae test
# Type: in vivo
# Details: ppm by weight in aqueous solution; third-instar larvae; mortality after 48 hours
# Protocol: K. Southern House Mosquito [Culex pipiens quinquefasciatus (Say)]
# Insecticidal activity is determined using third-instar larvae of the mosquito (Culex pipiens quinquefasciatus). Ten larvae are placed in a 6-ounce, number 67 Dixie wax paper cup containing 100 milliliters of an aqueous solution of the test chemical. The treated larvae are stored at 70° F, and 48 hours later the mortality is recorded. The primary screening level for this test is 1 ppm by weight of the test compound in the solution.
# as §1, §2
row,Structure (SMILES),"Approximate LD50, MOS (Southern house mosquito)"
1,COP(=S)(OC)SCC(=O)Nc1nc(NC(=O)CSP(=S)(OC)OC)c(-c2ccccc2)s1 [Compound 9],> 1.0 ppm
2,CCOP(=O)(OCC)SCC(=O)Nc1csc(NC(=O)CSP(=O)(OCC)OCC)n1 [Compound 8],> 1.0 ppm

# System: Green Peach Aphid [Myzus persicae (Sulzer)]
# Assay: Direct spray assay on green peach aphid
# Type: in vivo
# Details: % by weight in acetone-water, mortality after 3 days
# Protocol: E. Direct Spray Assay on Green Peach Aphid [Myzus persicae (Sulzer)]
# A radish plant (Rhaphanus sativus), approximately 2 cm tall, is transplanted into sandy loam soil in a 3-inch clay pot and infested with 25-50 green peach aphids of mixed ages. Twenty-four hours later the plant is sprayed, to the point of runoff, with a 50-50 acetone-water solution of the test compound. The treated plant is held in a greenhouse and mortality is recorded after 3 days. The primary screening level for this test is 0.05% by weight of the test compound in the acetone-water solution.
# as §1, §2
row,Structure (SMILES),"Approximate LD50, GPA (green peach aphid)"
1,COP(=S)(OC)SCC(=O)Nc1nc(NC(=O)CSP(=S)(OC)OC)c(-c2ccccc2)s1 [Compound 9],.15%
2,CCOP(=O)(OCC)SCC(=O)Nc1csc(NC(=O)CSP(=O)(OCC)OCC)n1 [Compound 8],.03%

# System: Two-Spotted Mite [Tetranychus urticae (Koch)]
# Assay: Two-spotted mite plant dip test
# Type: in vivo
# Details: eggs; tested at primary screening level 0.05% only; < means more than 50% kill, > less than 50% kill; 7 days
# Protocol: J. Two-Spotted Mite [Tetranychus urticae (Koch)]
# A pinto bean plant (Phaseolus sp.), approximately 10 cm tall is transplanted into sandy loam soil in a 3-inch clay pot and infested with two-spotted mites of mixed ages and sexes. Twenty-four hours later the infested plants are inverted and dipped for 2-3 seconds in a 50-50 acetone-water solution of the test compound. The treated plant is held in a greenhouse for 7 days. Mortality is then determined for both the adult mites and the nynmphs hatching from eggs which were on the plants at the time of treatment. The primary screening level for this test is 0.05% by weight of the test compound in the acetone-water solution.
# as §1
row,Structure (SMILES),"Approximate LD50, 2SM (two-spotted mite) (2) eggs"
1,COP(=S)(OC)SCC(=O)Nc1nc(NC(=O)CSP(=S)(OC)OC)c(-c2ccccc2)s1 [Compound 9],< .05%
2,CCOP(=O)(OCC)SCC(=O)Nc1csc(NC(=O)CSP(=O)(OCC)OCC)n1 [Compound 8],< .05%

# Same assay, conditions: post-embryonic; tested at primary screening level 0.05% only; < means more than 50% kill, > less than 50% kill; 7 days
row,Structure (SMILES),"Approximate LD50, 2SM (two-spotted mite) (1) post-embryonic"
1,COP(=S)(OC)SCC(=O)Nc1nc(NC(=O)CSP(=S)(OC)OC)c(-c2ccccc2)s1 [Compound 9],> .05%
2,CCOP(=O)(OCC)SCC(=O)Nc1csc(NC(=O)CSP(=O)(OCC)OCC)n1 [Compound 8],< .05%

# System: German Cockroach [Blatella germanica (Linne)]
# Assay: German cockroach spray insecticide evaluation
# Type: in vivo
# Details: % by weight in acetone-water spray; nymphs; mortality after 7 days
# Protocol: B. German Cockroach [Blatella germanica (Linne)]
# The test compound is diluted in a 50-50 acetone-water solution. Two milliliters of the solution are sprayed through a DeVilbiss type EGA hand spray gun into a circular cardboard cage contaning 10 1-month-old German Cockroach nymphs. The test cage is covered on the bottom with cellophane and the top with tulle netting. Percent mortality is recorded after 7 days. The primary screening level for this test is 0.1% by weight of the test compound in the acetone-water solution.
# as §1, §2
row,Structure (SMILES),"Approximate LD50, GR (German cockroach)"
1,CCOP(=O)(OCC)SCC(=O)Nc1csc(NC(=O)CSP(=O)(OCC)OCC)n1 [Compound 8],> .1%

# System: Lygus bug [Lygus hesperus (Knight)]
# Assay: Lygus bug spray insecticide evaluation
# Type: in vivo
# Details: % by weight in acetone-water spray; adults; mortality after 48 hours
# Protocol: C. Lygus bus [Lygus hesperus (Knight)]
# The test compound is dissolved in a 50-50 acetone-water solution. Two cubic centimeters of the solution are sprayed through a DeVilbiss-type EGA hand spray gun into a circular cardboard cage covered on the bottom with cellophane and the top with tulle netting, containing one string bean pod and 10 adult lygus bugs. Percent mortality is recorded after 48 hours. The primary screening level for this test is 0.5% by weight of the test compound in the acetone-water solution.
# as §1, §2
row,Structure (SMILES),"Approximate LD50, LB (Lygus bug)"
1,CCOP(=O)(OCC)SCC(=O)Nc1csc(NC(=O)CSP(=O)(OCC)OCC)n1 [Compound 8],> .05%

# System: Black Bean Aphid [Aphis fabae (Scop.)]
# Assay: Systemic assay on black bean aphid
# Type: in vivo
# Details: ppm by weight in soil, mortality after seven days
# Protocol: F. Systemic Assay on Black Bean Aphid [Aphis fabae (Scop.)]
# The test chemical is diluted in acetone and an aliquot is thoroughly mixed into 500 grams of dry, sandy loam soil. The treated soil is placed in a pint ice cream carton and a nasturtium plant (Tropaeolum sp.) approximately 5 cm tall is transplanted into the carton. The plant is then infested with approximately 25 black bean aphids of mixed ages and placed in the greenhouse. Seven days later mortality is recorded. The primary screening level for this test is 10 ppm by weight of the test compound in the soil.
# as §1, §2
row,Structure (SMILES),"Approximate LD50, BAS (bean aphid systemic)"
1,CCOP(=O)(OCC)SCC(=O)Nc1csc(NC(=O)CSP(=O)(OCC)OCC)n1 [Compound 8],> 10 ppm

# System: Housefly [Musca domestica (L.)]
# Assay: Housefly insecticide evaluation
# Type: in vivo
# Details: per 25 female houseflies; mortality after 48 hours
# Protocol: A. Housefly [Musca domestica (L.) ]
# The test compound is diluted in acetone and an aliquot is pipetted onto the bottom of a 55 × 15 mm aluminum dish. To insure even spreading on the bottom of the dish, 1 ml of acetone containing 0.02% peanut oil is added. After all the solvent has evaporated, the dish is placed in a circular cardboard cage containing 25 1-day-old female houseflies. The cage is covered on the bottom with cellophane and the top with tulle netting, and contains a sugar-water saturated cotton plug for maintenance of the flies. Mortality is recorded after 48 hours. The primary screening level for this test is 100 micrograms of the test compound per 25 female houseflies.
# as §1, §2
row,Structure (SMILES),"Approximate LD50, HF (housefly)"
1,COP(=S)(OC)SCC(=O)Nc1nc(NC(=O)CSP(=S)(OC)OC)c(-c2ccccc2)s1 [Compound 9],> 100 µg
2,CCOP(=O)(OCC)SCC(=O)Nc1csc(NC(=O)CSP(=O)(OCC)OCC)n1 [Compound 8],> 100 µg

# System: Cabbage Looper [Trichoplusia ni (Hubner)]
# Assay: Cabbage looper leaf dip test
# Type: in vivo
# Details: % by weight in solution, larvae, 48 hours plus 5 days if survivors
# Protocol: (§3) A test solution is prepared by dissolving the test compound in a 50-50 acetone-water solution. A section of a curly dock (Rumex crispus) leaf, aproximately 2.5 centimeters wide and 4 centimeters long, is immersed in the test solution for 2-3 seconds, then placed on a wire screen to dry. The dried leaf is placed in a petri dish containing a moistened piece of filter paper, and infested with 5 second-instar salt-marsh caterpillar larvae. Mortality of the larvae is recorded 48 hours later. If surviving larvae are still present, a piece of synthetic media is added to the dish and the larvae are observed for an additional 5 days in order to detect delayed effects of the test compound. The primary screening level for this test is 0.05% by weight of the test compound in the solution.
# H. Cabbage Looper [Trichoplusia ni (Hubner)]
# The procedure for cabbage looper larvae is the same as that used for salt-marsh caterpillar larvae, except that a cotyledon of hyzini squash (Calabacita abobrinha) of approximately the same size as the curly dock leaf section is used in place of the latter. The primary screening level for this test is 0.1% by weight of the test compound in the solution.
# as §1, §2
row,Structure (SMILES),"Approximate LD50, CL (cabbage looper)"
1,COP(=S)(OC)SCC(=O)Nc1nc(NC(=O)CSP(=S)(OC)OC)c(-c2ccccc2)s1 [Compound 9],> .5%
2,CCOP(=O)(OCC)SCC(=O)Nc1csc(NC(=O)CSP(=O)(OCC)OCC)n1 [Compound 8],> .1%

# System: Salt-marsh Caterpillar [Estigmene acrea (Druryl)]
# Assay: Salt-marsh caterpillar leaf dip test
# Type: in vivo
# Details: % by weight in solution, larvae, 48 hours plus 5 days if survivors
# Protocol: G. Salt-marsh Caterpillar [Estigmene acrea (Druryl)]
# as §3, §1, §2
row,Structure (SMILES),"Approximate LD50, SMC (salt-marsh caterpillar)"
1,COP(=S)(OC)SCC(=O)Nc1nc(NC(=O)CSP(=S)(OC)OC)c(-c2ccccc2)s1 [Compound 9],> .05%
2,CCOP(=O)(OCC)SCC(=O)Nc1csc(NC(=O)CSP(=O)(OCC)OCC)n1 [Compound 8],> .05%

# System: Tobacco Budworm [Heliotis virescens (F.)]
# Assay: Tobacco budworm leaf dip test
# Type: in vivo
# Details: % by weight in solution, larvae, 48 hours plus 5 days if survivors
# Protocol: as §3
# I. Tobacco Budworm [Heliotis virescens (F.)]
# Larvae of the tobacco budworm are used in this test in a procedure identical to that used for salt-marsh caterpillar larvae, except that a Romaine lettace (Latua sativa) leaf section of approximately the same size as the curly dock leaf section is used in place of the latter. The primary screening level for this test is 0.1% by weight of the test compound in the solution.
# as §1
# In cases where this level was found, the level is reported as the LD50. […]
row,Structure (SMILES),"Approximate LD50, TBW (tobacco budworm)"
1,CCOP(=O)(OCC)SCC(=O)Nc1csc(NC(=O)CSP(=O)(OCC)OCC)n1 [Compound 8],> .1%

# Source: US4086239A, “Thiazole bis-phosphates and phosphonates, intermediates, and insecticidal compositions and methods” (priority 1977, dated 1978)
